From patent US10077293B2, “Antimicrobial peptide analogues derived from abalone (Haliotis discus) and antimicrobial pharmaceutical composition containing the same” (priority 2016, dated 2018)
Ends that are not written are not given here.

Tests used:
E. coli ML35p [1] = assay: Chromogenic bacteriolytic plate assay; format: cell-based; conditions: E. coli ML35p (FIG. 6)
Procedure: In order to investigate the lytic activity of the analogues for bacterial membrane, chromogenic bacteriolytic plate assay was conducted using E. coli ML35p containing a chromosomal IPTG-inducible β-galactosidase gene (Mardones, G., Venegas, A. Chromogenic plate assay distinguishing bacteriolytic from bacteriostatic activity of an antibiotic agent. J Microbiol Methods. 2000, 40(3), 199-206). After inoculating 2 mL of E. coli ML35p to TSB and culturing at 37° C. for 16-18 hours, a mixture of 50 μL of the cultured microorganism solution, 10 μL of 1 mM IPTG and 50 μL of 50 mg/mL X-gal was poured onto TSB containing 0.8% agarose at 42° C. the next day. After boring a well on the solidified plate, 5 μL of each peptide analogue solution was introduced and incubation was conducted for 3 hours. Then, after pouring 2×TSB containing 10 mL of 1.5% agarose to the plate and solidifying, incubation was conducted again for 16-18 hours. After the incubation, the size (diameter) of a clearing zone and the presence or absence of a blue line at the edge portion were investigated.

P. aeruginosa KCTC2004 = assay: Ultrasensitive radial diffusion assay (URDA), antimicrobial activity; format: cell-based, Pseudomonas aeruginosa; conditions: P. aeruginosa KCTC2004, Gram −
Procedure: (§1) Four species of Gram positive bacteria (Bacillus subtilis, Staphylococcus epidermidis, […] and Propionibacterium acnes), five species of Gram negative bacteria (E. coli D31, E. coli ML35p, Shigella flexneri, Pseudomonas aeruginosa and Vibrio parahaemolyticus) and one yeast species (Candida albicans) were used for experiments. The antimicrobial activity was measured by ultrasensitive radial diffusion assay (URDA) using two layers of media of different concentrations. First, the microorganisms were pre-cultured in each medium for 18 hours and the concentration of the microorganisms was adjusted to 84% T (≈1×10^8 CFU/mL) using a colorimeter (Product No. 52-1210, BioMerieux, Inc., USA). Then, 0.5 mL of the diluted microorganism solution was added to an underlay gel containing 9.5 mL of 0.03% TSB, 1% type I agarose and 10 mM phosphate buffer (PB; pH 6.5) and plated and solidified on a plate after mixing well. After boring a well with a diameter of 2.5 mm on the solidified plate using a punch, 5 μL of each analogue solution was introduced. All the analogues were dissolved in 5 μL of 0.01% acetic acid to avoid any effect of solvent. After the analogue permeated into the medium, the microorganisms were cultured for 3 hours and an overlay gel containing 10 mL of 6% TSB, 1% type I agarose and 10 mM phosphate buffer (pH 6.5) was poured and solidified. Then, the microorganisms were cultured again for 18 hours at the same temperature. Next day, the antimicrobial activity was determined by measuring the size (diameter) of a clear zone formed around the well. Piscidin 1, an antimicrobial peptide derived from the mast cells of a hybrid striped bass, was used as a control.

S. epidermidis KCTC1917 = assay: as above; format: cell-based, Staphylococcus epidermidis; conditions: S. epidermidis KCTC1917, Gram +
Procedure: as §1

C. albicans = assay: as above; format: cell-based, Candida albicans
Procedure: as §1

B. subtilis KCTC1021 = assay: as above; format: cell-based, Bacillus subtilis; conditions: B. subtilis KCTC1021, Gram +
Procedure: as §1

[2] = tested on: Propionibacterium acnes KCTC11946; assay: as above; format: cell-based; conditions: Propionibacterium acnes KCTC11946, Gram +
Procedure: as §1

[3] = tested on: Vibrio parahaemolyticus KCCM42264; assay: as above; format: cell-based
Procedure: as §1

E. coli ML35p [4] = assay: as above; format: cell-based; conditions: Gram −
Procedure: as §1

[5] = tested on: Shigella flexneri KCTC2009; assay: as above; format: cell-based; conditions: Shigella flexneri KCTC2009, Gram −
Procedure: as §1

E. coli D31 = assay: as above; format: cell-based; conditions: E. coli D31, Gram −
Procedure: as §1

S. mutans KCCM40105 = assay: as above; format: cell-based, Streptococcus mutans; conditions: S. mutans KCCM40105, Gram +
Procedure: as §1

E. coli ML35p [6] = assay: Killing kinetics study; format: cell-based
Procedure: For killing kinetics study of the analogues whose bactericidal process was identified, killing rate for each analogue was investigated at 1×MIC and 5×MIC for 60 minutes. For this, the analogue was added to an e-tube containing 10^6 CFU/mL of E. coli ML35p. While incubating at 37° C., 10 μL of the solution was taken from the tube at predetermined times (5, 10, 20, 30, 40, 50 and 60 minutes after the addition of the analogue) and plated on a TSA plate. Then, the number of formed colonies was counted. As control groups, no analogue or piscidin 1 was added. The killing % for the analogues was represented as the number of formed colonies relative to that when no analogue was added.

human red blood cells = format: cell-based
Procedure: Hemolytic activity was measured using human red blood cells. After adding to human blood an equal amount of phosphate buffered saline (PBS, 50 mM sodium phosphate, 150 mM NaCl, pH 7.4), mixing and centrifuging at 8000×g and 4° C. for 1 minute, the supernatant was removed and the remaining red blood cells were washed 3 times. The red blood cells were added to PBS to a concentration of 3% hematocrit. In order to measure the hemolytic activity, 90 μL of the 3% hematocrit was introduced to an e-tube and then 10 μL of each analogue solution (×10) was added. After incubation of each e-tube at 37° C. for 1 hour, centrifugation was performed at 13,000×g and 4° C. for 10 minutes. After taking 70 μL from each supernatant and transferring to a 96-well microtiter plate, release of hemoglobin was measured at 405 nm. Triton X-100 (0.1%) was used as a control group for 100% lysis of red blood cells and the hemolytic activity was calculated according to the following equation. % Hemolysis=[(Abs 405 nm in the peptide solution−Abs 405 nm in buffer)/(Abs 405 nm in 0.1% Triton X-100−Abs 405 nm in buffer)]×100

[7] = C. albicans KCCM42264 (as printed in Table 2), yeast

Row | Compound | bacteriolytic activity: blue line at the edge portion of the clearing zone (E. coli ML35p [1]) | Minimal effective concentration (P. aeruginosa KCTC2004) [µg/mL] | Minimal effective concentration (S. epidermidis KCTC1917) [µg/mL] | Minimal effective concentration (C. albicans; C. albicans KCTC7965, yeast) [µg/mL] | Minimal effective concentration (B. subtilis KCTC1021) [µg/mL] | Minimal effective concentration [2] [µg/mL] | Minimal effective concentration [3] [µg/mL] | Minimal effective concentration (E. coli ML35p [4]) [µg/mL] | Minimal effective concentration [5] [µg/mL] | Minimal effective concentration (E. coli D31) [µg/mL] | Minimal effective concentration (S. mutans KCCM40105) [µg/mL] | Minimal effective concentration (C. albicans; [7]) [µg/mL] | time to kill E. coli ML35p (E. coli ML35p [6]; 1×MIC) [min] | time to kill E. coli ML35p (E. coli ML35p [6]; 5×MIC) [min] | hemolytic activity (in words, FIG. 4) (human red blood cells)
1 | [H]/N=C(/N)N[C@H]1[C@H](O)[C@@H](O)[C@H](O[C@@H]2O[C@@H](C)[C@](O)(C=O)[C@H]2O[C@@H]2O[C@@H](CO)[C@H](O)[C@@H](O)[C@@H]2NC)[C@@H](N/C(N)=N\[H])[C@@H]1O [streptomycin] | showed a blue line at the edge portion | – | – | – | – | – | – | – | – | – | – | – | – | – | –
2 | KAAAKAAKAA-NH2 (C-terminus assumed) [SEQ ID NO 6, KAAAKAAKAA] | – | >50.0 | >50.0 | >50.0 | >50.0 | >50.0 | >50.0 | >50.0 | >50.0 | >50.0 | >50.0 | – | – | – | –
3 | LLWKLLKLLLK-NH2 [SEQ ID NO 2, LLWKLLKLLLK] | – | 14.2 | 18.4 | – | 16.0 | 18.0 | 14.0 | 12.1 | 11.6 | 16.2 | 16.3 | 17.0 | – | – | –
4 | FFHHIFRGIVHVGKTIHRLVTG-NH2 [Piscidin 1, reference compound] | showed an edge line | 8.0 | – | >62.5 | 7.5 | – | 3.0 | 2.3 | 8.0 | 3.8 | 3.2 | >62.5 | ≤ 20 | ≤ 5 | –
5 | AAWKLLKALAKA-NH2 [SEQ ID NO 1, AAWKLLKALAKA] | – | 36.0 | 17.3 | – | 20.0 | 25.0 | 26.3 | 23.0 | 28.0 | 22.0 | 20.3 | 42.0 | – | – | –
6 | KLALKLLKLL-NH2 [SEQ ID NO 5, KLALKLLKLL] | – | 19.9 | 16.4 | 14.4 | 15.2 | 16.6 | 8.1 | – | 17.9 | 17.5 | 10.5 | – | – | – | –
7 | KLLLKLLKLL-NH2 [SEQ ID NO 7, KLLLKLLKLL] | – | 11.2 | 8.8 | 12.1 | 11.2 | 11.9 | 6.8 | 8.8 | 10.4 | 13.2 | 7.8 | – | – | – | –
8 | KLLKKLLKLL-NH2 [SEQ ID NO 9, KLLKKLLKLL] | – | 17.8 | 14.0 | 14.0 | 15.7 | 18.5 | 9.5 | 17.2 | 15.4 | 18.9 | 9.0 | – | – | – | –
9 | KWLLKLLKKL [SEQ ID NO 10, KWLLKLLKKL] | – | – | – | – | – | – | – | – | – | – | – | – | – | – | good hemolytic activity
10 | LKWLLKLLKLK-NH2 [SEQ ID NO 11, LKWLLKLLKLK] | – | 8.7 | 16.0 | 10.0 | 12.1 | 13.1 | 9.0 | 15.0 | 11.2 | 14.1 | 12.0 | – | – | – | –
11 | KLLLKLLKKLL-NH2 [SEQ ID NO 8, KLLLKLLKKLL] | – | 12.5 | 9.6 | 11.8 | 10.3 | 12.3 | 7.1 | 9.8 | 10.7 | 14.2 | 7.4 | – | – | – | –
12 | LLWKLLKKLLK-NH2 [SEQ ID NO 3, LLWKLLKKLLK] | – | 15.2 | 17.2 | – | 14.0 | 14.5 | 9.1 | 13.8 | 10.0 | 19.4 | 15.8 | 15.0 | – | – | –
13 | LLWKLLKKL [SEQ ID NO 4, LLWKLLKKL] | – | – | – | – | – | – | – | – | – | – | – | – | – | – | good hemolytic activity
